Test results: PubChem BioAssay AID2060886 (Molecular Pharmacology Branch, DTP, NCI, 2025)

Test system: 653999-131-R-J2-PDC complex spheroids, growth inhibition
Assay: Anticancer human tumor 653999-131-R-J2-PDC patient-derived lung adenocarcinoma cell line growth inhibition [RAS]
Conditions: for IC50: curve of first compound; for viability, T/C: stronger effect = lower value
How it was run: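 Agents were tested in combination matrices in half-log decrements from a top concentration at or near clinical Cmax (10 microM if undetermined). Targets were multi-cell spheroids of tumour lines plus HUVEC and MSC stromal cells.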

[1] = second compound 0.000949 µM, first compound 0.0316 µM
[2] = second compound 0.000949 µM, first compound 0.1 µM
[3] = second compound 0.000949 µM, first compound 0.316 µM
[4] = second compound 0.000949 µM, first compound 1 µM
[5] = second compound 0.000949 µM, first compound 3.16 µM
[6] = second compound 0.000949 µM, first compound 10 µM
[7] = second compound 0.003 µM, first compound 0.0316 µM
[8] = second compound 0.003 µM, first compound 0.1 µM
[9] = second compound 0.003 µM, first compound 0.316 µM
[10] = second compound 0.003 µM, first compound 1 µM
[11] = second compound 0.003 µM, first compound 3.16 µM
[12] = second compound 0.003 µM, first compound 10 µM
[13] = second compound 0.00949 µM, first compound 0.0316 µM
[14] = second compound 0.00949 µM, first compound 0.1 µM
[15] = second compound 0.00949 µM, first compound 0.316 µM
[16] = second compound 0.00949 µM, first compound 1 µM
[17] = second compound 0.00949 µM, first compound 3.16 µM
[18] = second compound 0.00949 µM, first compound 10 µM
[19] = second compound 0.03 µM, first compound 0.0316 µM
[20] = second compound 0.03 µM, first compound 0.1 µM
[21] = second compound 0.03 µM, first compound 0.316 µM
[22] = second compound 0.03 µM, first compound 1 µM
[23] = second compound 0.03 µM, first compound 3.16 µM
[24] = second compound 0.03 µM, first compound 10 µM
[25] = second compound 0.0949 µM, first compound 0.0316 µM
[26] = second compound 0.0949 µM, first compound 0.1 µM
[27] = second compound 0.0949 µM, first compound 0.316 µM
[28] = second compound 0.0949 µM, first compound 1 µM
[29] = second compound 0.0949 µM, first compound 3.16 µM
[30] = second compound 0.0949 µM, first compound 10 µM
[31] = second compound 0.3 µM, first compound 0.0316 µM
[32] = second compound 0.3 µM, first compound 0.1 µM
[33] = second compound 0.3 µM, first compound 0.316 µM
[34] = second compound 0.3 µM, first compound 1 µM
[35] = second compound 0.3 µM, first compound 3.16 µM
[36] = second compound 0.3 µM, first compound 10 µM
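Further: spheroids exposed to the agents for seven days before the readout.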

CC(C)NCC(C(=O)N1CCN(c2ncnc3c2C(C)CC3O)CC1)c1ccc(Cl)cc1 (stereo unspecified) + CCn1c(-c2cc(N3CCN(C)CC3)cnc2C(C)OC)c2c3cc(ccc31)-c1csc(n1)CC(NC(=O)C1CC1C)C(=O)N1CCCC(N1)C(=O)OCC(C)(C)C2
IC50 (second compound 0.000949 µM): 649 nM | IC50 (second compound 0.003 µM): 190 nM | IC50 (second compound 0.00949 µM): < 31.6 nM | IC50 (second compound 0.03 µM): < 31.6 nM | IC50 (second compound 0.0949 µM): < 31.6 nM | IC50 (second compound 0.3 µM): < 31.6 nM | viability, T/C [1]: 79.2% | viability, T/C [2]: 89.7% | viability, T/C [3]: 61.1% | viability, T/C [4]: 43.9% | viability, T/C [5]: 26.6% | viability, T/C [6]: 26.9% | viability, T/C [7]: 72.5% | viability, T/C [8]: 52.9% | viability, T/C [9]: 50.8% | viability, T/C [10]: 29.6% | viability, T/C [11]: 26.6% | viability, T/C [12]: 20.4% | viability, T/C [13]: 49.7% | viability, T/C [14]: 39.6% | viability, T/C [15]: 38.4% | viability, T/C [16]: 28.8% | viability, T/C [17]: 16.4% | viability, T/C [18]: 14.4% | viability, T/C [19]: 34.2% | viability, T/C [20]: 36.5% | viability, T/C [21]: 23.9% | viability, T/C [22]: 18.6% | viability, T/C [23]: 10.3% | viability, T/C [24]: 9.69% | viability, T/C [25]: 27.3% | viability, T/C [26]: 23.8% | viability, T/C [27]: 18.5% | viability, T/C [28]: 13.7% | viability, T/C [29]: 9.85% | viability, T/C [30]: 5.97% | viability, T/C [31]: 24% | viability, T/C [32]: 20.4% | viability, T/C [33]: 20.9% | viability, T/C [34]: 14.7% | viability, T/C [35]: 8.46% | viability, T/C [36]: 5.88%

NC1c2ccccc2OC12CCN(c1cnc3c(N4CCCc5ncccc54)n[nH]c3n1)CC2 (stereo unspecified) + C=CC(=O)N1CCN(c2nc(OCC3CCCN3C)nc3c(F)c(-c4nc(N)cc(C)c4C(F)(F)F)c(Cl)cc23)C(C)C1
IC50 (second compound 0.00316 µM): > 10000 nM | IC50 (second compound 0.01 µM): > 10000 nM | IC50 (second compound 0.0316 µM): > 10000 nM | IC50 (second compound 0.1 µM): > 10000 nM | IC50 (second compound 0.316 µM): > 10000 nM | IC50 (second compound 1 µM): > 10000 nM | viability, T/C (second compound 0.00316 µM, first compound 0.0316 µM): 69.5% | viability, T/C (second compound 0.00316 µM, first compound 0.1 µM): 70.1% | viability, T/C (second compound 0.00316 µM, first compound 0.316 µM): 80.6% | viability, T/C (second compound 0.00316 µM, first compound 1 µM): 79.7% | viability, T/C (second compound 0.00316 µM, first compound 3.16 µM): 70.5% | viability, T/C (second compound 0.00316 µM, first compound 10 µM): 64.6% | viability, T/C (second compound 0.01 µM, first compound 0.0316 µM): 78.4% | viability, T/C (second compound 0.01 µM, first compound 0.1 µM): 75.2% | viability, T/C (second compound 0.01 µM, first compound 0.316 µM): 78.5% | viability, T/C (second compound 0.01 µM, first compound 1 µM): 89.3% | viability, T/C (second compound 0.01 µM, first compound 3.16 µM): 68.6% | viability, T/C (second compound 0.01 µM, first compound 10 µM): 69.9% | viability, T/C (second compound 0.0316 µM, first compound 0.0316 µM): 76.5% | viability, T/C (second compound 0.0316 µM, first compound 0.1 µM): 77.7% | viability, T/C (second compound 0.0316 µM, first compound 0.316 µM): 82.5% | viability, T/C (second compound 0.0316 µM, first compound 1 µM): 67.8% | viability, T/C (second compound 0.0316 µM, first compound 3.16 µM): 86.4% | viability, T/C (second compound 0.0316 µM, first compound 10 µM): 81.6% | viability, T/C (second compound 0.1 µM, first compound 0.0316 µM): 97.8% | viability, T/C (second compound 0.1 µM, first compound 0.1 µM): 75% | viability, T/C (second compound 0.1 µM, first compound 0.316 µM): 70.2% | viability, T/C (second compound 0.1 µM, first compound 1 µM): 83.2% | viability, T/C (second compound 0.1 µM, first compound 3.16 µM): 76.6% | viability, T/C (second compound 0.1 µM, first compound 10 µM): 73.3% | viability, T/C (second compound 0.316 µM, first compound 0.0316 µM): 86% | viability, T/C (second compound 0.316 µM, first compound 0.1 µM): 89.8% | viability, T/C (second compound 0.316 µM, first compound 0.316 µM): 84.8% | viability, T/C (second compound 0.316 µM, first compound 1 µM): 65.5% | viability, T/C (second compound 0.316 µM, first compound 3.16 µM): 88.2% | viability, T/C (second compound 0.316 µM, first compound 10 µM): 73.2% | viability, T/C (second compound 1 µM, first compound 0.0316 µM): 76.6% | viability, T/C (second compound 1 µM, first compound 0.1 µM): 67.2% | viability, T/C (second compound 1 µM, first compound 0.316 µM): 87.9% | viability, T/C (second compound 1 µM, first compound 1 µM): 72.9% | viability, T/C (second compound 1 µM, first compound 3.16 µM): 85% | viability, T/C (second compound 1 µM, first compound 10 µM): 66.3%

CC(=O)OC12COC1CC(O)C1(C)C(=O)C(O)C3=C(C)C(OC(=O)C(O)C(NC(=O)OC(C)(C)C)c4ccccc4)CC(O)(C(OC(=O)c4ccccc4)C21)C3(C)C (stereo unspecified) + CCn1c(-c2cc(N3CCN(C)CC3)cnc2C(C)OC)c2c3cc(ccc31)-c1csc(n1)CC(NC(=O)C1CC1C)C(=O)N1CCCC(N1)C(=O)OCC(C)(C)C2
IC50 (second compound 0.000949 µM): < 31.6 nM | IC50 (second compound 0.003 µM): < 31.6 nM | IC50 (second compound 0.00949 µM): < 31.6 nM | IC50 (second compound 0.03 µM): < 31.6 nM | IC50 (second compound 0.0949 µM): < 31.6 nM | IC50 (second compound 0.3 µM): < 31.6 nM | viability, T/C [1]: 38.1% | viability, T/C [2]: 39.4% | viability, T/C [3]: 42.8% | viability, T/C [4]: 43.5% | viability, T/C [5]: 48.8% | viability, T/C [6]: 51.6% | viability, T/C [7]: 29.9% | viability, T/C [8]: 27% | viability, T/C [9]: 27.6% | viability, T/C [10]: 35.4% | viability, T/C [11]: 30.9% | viability, T/C [12]: 31.7% | viability, T/C [13]: 14.9% | viability, T/C [14]: 21% | viability, T/C [15]: 20.7% | viability, T/C [16]: 21.9% | viability, T/C [17]: 21.7% | viability, T/C [18]: 19.1% | viability, T/C [19]: 13.3% | viability, T/C [20]: 13.2% | viability, T/C [21]: 12.8% | viability, T/C [22]: 13.2% | viability, T/C [23]: 14% | viability, T/C [24]: 13.1% | viability, T/C [25]: 11.5% | viability, T/C [26]: 12.1% | viability, T/C [27]: 13.8% | viability, T/C [28]: 10.6% | viability, T/C [29]: 12.6% | viability, T/C [30]: 12.2% | viability, T/C [31]: 8.97% | viability, T/C [32]: 10.1% | viability, T/C [33]: 12% | viability, T/C [34]: 13.4% | viability, T/C [35]: 12.2% | viability, T/C [36]: 12.3%
